Laboratory results: patent US7063829B2, “Wasp family protein fragments, and use thereof” (Centre National de la Recherche Scientifique, priority 1999, dated 2006)

Legend:
actin polymerisation = experiment: Cellular actin polymerisation test with GST-WH2/A beads in cell extracts; format: biochemical, human
Excerpt: The GST-WH2/A protein was absorbed onto 500 nm latex beads (Polyscience Inc., 400 Valley Road, Warrington Pa., USA) following the manufacturers' instructions.
Moreover, the components recruited onto the surface of the beads, are targets for tyrosine kinase signalling pathways. Thanks to this in vitro system, it is now possible to study the conditions necessary for actin polymerisation in cells, a process which up to now has not been accessible to direct experimental manipulation.
The cellular actin polymerisation test of the invention has all these characteristics. Beads measuring 200–500 nm can be produced by absorbing purified GST-WH2/A recombinant protein on their surface. […] The beads are then added to extracts prepared from supernatants of lysed cells in culture. The volume of extract necessary for an experiment is of the order of a few microlitres, reducing the cost of the experiment. These extracts have the advantage that they can be produced in a large quantity and stored for a long period, at −80° C. Before the addition of these beads, a fluorescent actin derivative (commercial actin-rhodamine) is added to the extract to make the actin polymerisation visible by epifluorescence microscopy. The actin polymerisation is observed 15 min after the addition of the beads, resulting in an accumulation of fluorescent actin around the beads. […]

actin cytoskeleton = conditions: after some years of use; cited from earlier work
[1] = test system: actin polymerisation on the surface of GST-WA particles; experiment: Inhibition of actin polymerisation induced by GST-WA protein on particles in HeLa extracts; format: biochemical, human
Experimental: Inhibition of actin polymerisation induced by GST-WA protein: 10 μm polystyrene particles (Polysciences inc.) are covered to saturation with GST-WA protein according to the manufacturer's protocol. The particles are resuspended to 1% solid in PBS (Phosphate Buffer Saline) and stored on ice. To test the independence of the actin polymerisation mechanism induced by GST-WA we prepared three solutions. Each sample contained 15 μl of HeLa extracts (supplemented with ATP, creatine phosphate and actin marked with rhodamine), 0.5 μl of GST-WA particles and 1.5 μl of PBS (A), or 1.5 μl of GST-WA protein at 1 mg/ml (B) or 1.5 μl of GST-PRO protein (PRO corresponding to the fragment delimited by the amino acids situated at positions 235 to 584 of the ActA protein of Listeria monocytogenes) at 1 mg/ml (C). 6 μl of the final mixture of these three solutions were sealed between slide and coverglass. We observed fluorescence (rhodamine actin) around the particles for thirty minutes and measured the intensity of fluorescence on a population of forty beads using a microscope (Leica) and a linear digital camera (Micromax Princeton instrument). The average intensity M (arbitrary unit) was 95,000±13,000 for sample A (positive control). For sample B, M=0±1000, the actin polymerisation on the surface of the particles was inhibited by the addition of GST-WA in solution. […]

C=C1[C@@H](C)[C@H]2[C@H](Cc3ccccc3)NC(=O)[C@]23[C@H](OC(C)=O)/C=C/[C@@](C)(O)C(=O)[C@@H](C)C/C=C/[C@H]3[C@@H]1O [cytochalasin D]
sensitivity of the screening test to known medicaments inhibiting actin polymerisation (actin polymerisation): sensitive

CCCC(CCC)C(=O)O [valproic acid]
teratogenic properties due to secondary effects on the actin cytoskeleton (actin cytoskeleton): teratogenic properties

latrunculin
sensitivity of the screening test to known medicaments inhibiting actin polymerisation (actin polymerisation): sensitive

B1: GST-WA: recombinant fusion of GST, WH2/A domain of human WASP (positions 404-502, SEQ ID NO: 4) and myc9E10 epitope (protein)
chain: PSSGNGPAPPPLPPALVPAGGLAPGGGRGALLDQIRQGIQLNKTPGAPESSALQPPPQSSEGLVGALMHVMQKRSRAIHSSDEGEDQAGDEDEDDEWDDEQKLISEEDL
modifications: left off: a dimerising Fc or GST
average intensity M of fluorescence (rhodamine actin) around the particles ([1]; 1.5 μl protein at 1 mg/ml added to 15 μl HeLa extracts + 0.5 μl GST-WA particles (10 μm polystyrene), thirty minutes, forty beads, PBS control (sample A) 95,000±13,000): 0±1000 arbitrary unit
actin polymerisation on the surface of the particles after addition of the protein in solution ([1]; protein at 1 mg/ml in solution, HeLa extracts, GST-WA particles): inhibited
